# From patent US11937624B2, “Food composition” (INNOVAFOOD AB, priority 2011, dated 2024)
# Marks after values point to notes of the source that are not given here.
# Tests used:
# serum insulin = test: Postprandial serum insulin response to white wheat bread test meal with test drink (Example 1); format: in vivo, human
# Protocol: (§1) Four different beverages were tested by the inventors; one reference, one with only the amino acid mixture, one with only CrPic, and one combining the amino acid mixture with CrPic. The amino acids used were L-leucine, L-isoleucine, L-lysine, L-valine and L-threonine.
# (§2) The reference (“Ref”) drink was made out of tap water and aroma, poured into 330 mL bottles and carbonated with a Table Top Carbonator CF-121 (Omve) set at 10 g CO2/L.
# (§3) The beverage with CrPic (“CrPic”) was prepared by dissolving one thawed pellet of concentrated CrPic solution (4.0 grams) in 308.0 grams of carbonated tap water and thereafter 0.19 grams of aroma was added. Additional CO2 was added just before serving with a Soda Streamer to mimic the amount in the Ref drink.
# (§4) The beverage with amino acids (“5AA”) was prepared by dissolving 6.9 grams of the amino acid mixture in 305.1 grams of carbonated tap water and thereafter 0.19 grams of aroma was added. Additional CO2 was added just before serving with a Soda Streamer to mimic the amount in the Ref drink. See Table 7 for composition of amino acid mixture.
# (§5) The beverage with amino acids and CrPic (“5AA+CrPic”) was prepared by dissolving 6.9 grams of the amino acid mixture and one thawed pellet of concentrated CrPic solution (4 grams) in 301.1 grams of carbonated tap water and thereafter 0.19 grams of aroma was added. Additional CO2 was added just before serving with a Soda Streamer to mimic the amount in the Ref drink.
# (§6) The test meals consisted of sandwiches made of white wheat bread (Dollarfranska, Lockarps, Lockarp, Sweden), contributing with 50 grams of available starch, and the test drinks. The white wheat bread was spread with 10 grams of butter (Bregott, Arla, Stockholm, Sweden) and 24 grams of orange marmalade (kindly provided by Önos, Procordia Food, Eslöv). The sandwiches provided 9 grams of protein and an additional amount of carbohydrates from the marmalade and butter of 14 grams. A schematic overview of the composition of the different test meals is found in Table 2.
# (§7) Nineteen healthy subjects, 11 men and 8 women, aged 38-60 (51±1 years; mean±SEM) and with body mass indexes of 24-30 (27.3±0.3 kg/m2; mean±SEM) were included in the study. All subjects had normal fasting blood glucose levels (5.6±0.1 mmol/L, mean±SEM).
# (§8) The test subjects were instructed to eat a dinner of own choice (but with a low content of fiber) as well as an evening meal consisting of white wheat bread and a beverage, and to eat the same meals the evening before every test occasion. After the white wheat bread meal at around 9-10 p.m., the subjects were thereafter to restrain from ingesting anything but maximum a half glass of water on the morning of the test occasion.
# (§9) Upon arrival at the laboratory at 07:45 on the test day, the subjects were sat to rest before a fasting capillary blood sample was drawn. Immediately thereafter, the test meal was served and a digital timer was started. Together with the drinks, a […] sandwich meal was served, containing 64 g available carbohydrates, 9.1 g protein and 11.7 g fat. The subjects were instructed to finish the meal in 10-15 minutes and to alternate between eating and drinking. All meals were well tolerated, and the subjects had no problems finishing eating within the 10-15 min period.
# (§10) Capillary blood samples were taken at fasting and 15, 30, 45, 60, 90, 120 and 180 min after the ingestion of the meal for the analysis of blood glucose and serum insulin.
# (§11) Blood glucose was immediately analyzed in serum with the use of a B-glucose analyzer (Hemocue AB, Ängelholm, Sweden). Serum tubes were centrifuged for 5 min (3000 rpm) and serum was frozen at −18° C. for the measurement of insulin. The serum insulin measurement was performed on an integrated immunoassay analyzer (CODA open Microplate System, Bio-Rad Laboratories, Hercules, CA) by using an enzyme immunoassay kit (Mercodia Insulin ELISA, Mercodia AB, Uppsala, Sweden). […]
# blood glucose = test: Postprandial blood glucose response to white wheat bread test meal with test drink (Example 1); format: in vivo, human
# Protocol: as §1, §2, §3, §4, §5, §6, §7, §8, §9, §10, §11
# [1] = Table 5 comparison, 0-120 min, mean ± SEM, n=19 (5AA n=18)
# [2] = Table 5 comparison, vs Ref meal
# [3] = healthy subjects, carbonated water drink with sandwich meal, 0-60 min, mean ± SEM, n=19 (5AA n=18)
# [4] = healthy subjects, carbonated water drink with sandwich meal, 0-120 min, mean ± SEM, n=19 (5AA n=18)
# [5] = healthy subjects, carbonated water drink with sandwich meal, 0-180 min, mean ± SEM, n=19 (5AA n=18)
substance,measurement,setting,value
Chromium tripicolinate [CrPic],Change in insulin iAUC 0-60 min as a percentage of the reference meal,"serum insulin; 0-60 min, vs Ref meal",−12%
same,Change in insulin iAUC 0-120 min as a percentage of the reference meal,"serum insulin; 0-120 min, vs Ref meal",−10%
same,Change in insulin iAUC 0-180 min as a percentage of the reference meal,"serum insulin; 0-180 min, vs Ref meal",−11%
same,Insulin iAUC 0-120 min,serum insulin; [1],15.4 ± 1.9 nmol·min/L
same,Change (%) of insulin iAUC 0-120 min,serum insulin; [2],−10%
same,Insulin iAUC 0-60 min,serum insulin; [3],7.5 ± 0.9^a nmol · min/L
same,Insulin iAUC 0-120 min,serum insulin; [4],15.4 ± 1.9^a nmol · min/L
same,Insulin iAUC 0-180 min,serum insulin; [5],18.5 ± 2.6^b nmol · min/L
same,Change in glucose iAUC 0-60 min as a percentage of the reference meal,"blood glucose; 0-60 min, vs Ref meal",−13%
same,Change in glucose iAUC 0-120 min as a percentage of the reference meal,"blood glucose; 0-120 min, vs Ref meal",−6%
same,Change in glucose iAUC 0-180 min as a percentage of the reference meal,"blood glucose; 0-180 min, vs Ref meal",−4%
same,Glucose iAUC 0-120 min,blood glucose; [1],189 ± 20.7 mmol·min/L
same,Change (%) of glucose iAUC 0-120 min,blood glucose; [2],−6%
same,Blood glucose iAUC 0-60 min,blood glucose; [3],100.2 ± 9.3^ac mmol min/L
same,Blood glucose iAUC 0-120 min,blood glucose; [4],189.1 ± 20.7^ab mmol min/L
same,Blood glucose iAUC 0-180 min,blood glucose; [5],222.3 ± 25.6 mmol·min/L
